Source: ChEMBL document CHEMBL1201862, “PubChem BioAssay data set” (2004)
Calls of active or inactive are those of the source.

Columns and labels:
[1] = biological target: T1, Glycogen synthase kinase-3 alpha (Homo sapiens, UniProt P49840); assay: Inhibition of Human GSK-3 alpha Activity Measured in Biochemical System Using Microfluidics - 2063-06_Inhibitor_Dose_DryPowder_Activity_Set2. [Related pubchem assays (depositor defined):AID2709]
[2] = biological target: T2, Glycogen synthase kinase-3 beta (Homo sapiens, UniProt P49841); assay: Inhibition of Human GSK-3 beta Activity Measured in Biochemical System Using Microfluidics - 2063-05_Inhibitor_Dose_DryPowder_Activity_Set2. [Related pubchem assays (depositor defined):AID2709]
[3] = biological target: Cyclin-dependent kinase 5/CDK5 activator 1 (Homo sapiens, UniProt Q00535); assay: CDK5-p25 kinase inhibitors, specificity check, dose response, selectivity assay for GSK-3 alpha inhibitor project, biochemical, microfluidic mobility shift, dry powder (AID 588430)
CHO-K1 = assay: (§1) Counterscreen for antagonists of the orexin 1 receptor (OX1R; HCRTR1): Homogeneous time resolved fluorescence (HTRF)-based cell-based dose response assay to identify antagonists of the parental CHO-K1 cell line. [Related pubchem assays (depositor defined):AID434989, AID435008, AID463079, AID485270, AID492963, AID492964, AID492965, AID493232, AID504699, AID504701]; assay type: functional; conditions: Cricetulus griseus
[4] = biological target: T3, Orexin/Hypocretin receptor type 1 (Homo sapiens, UniProt O43613); assay: Homogeneous Time Resolved Fluorescence (HTRF)-based cell-based high throughput dose response assay for antagonists of the orexin 1 receptor (OX1R; HCRTR1). [Related pubchem assays (depositor defined):AID434989, AID435008, AID463079, AID485270, AID492963, AID492964, AID492965, AID493232, AID504717, AID504718]; assay type: functional
T3 sequence (O43613 whole entry): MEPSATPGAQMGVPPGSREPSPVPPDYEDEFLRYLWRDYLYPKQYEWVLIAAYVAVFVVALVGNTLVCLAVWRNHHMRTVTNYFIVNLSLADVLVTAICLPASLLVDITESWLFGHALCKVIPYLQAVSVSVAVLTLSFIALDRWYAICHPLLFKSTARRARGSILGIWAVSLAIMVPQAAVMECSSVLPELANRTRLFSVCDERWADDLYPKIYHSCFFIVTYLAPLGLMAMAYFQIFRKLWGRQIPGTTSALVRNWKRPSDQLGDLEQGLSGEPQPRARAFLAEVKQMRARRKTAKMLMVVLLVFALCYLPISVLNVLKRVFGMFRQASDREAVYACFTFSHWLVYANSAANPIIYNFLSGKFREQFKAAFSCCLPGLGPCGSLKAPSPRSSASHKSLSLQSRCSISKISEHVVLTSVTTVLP

[5] = biological target: T4, Polyadenylate-binding protein 1 (Homo sapiens, UniProt P11940); assay: PABP1 MLLE–PAM2 interaction inhibitors, dose response, miRNA deadenylation inhibitor project, biochemical, fluorescence polarization, Cy5-PAM2 peptide, secondary (AID 602260); assay type: functional; conditions: read-out: IC50_Mean
[6] = biological target: T3, Orexin/Hypocretin receptor type 1; assay: Fluorescence-based cell-based high throughput dose response assay for antagonists of the orexin 1 receptor (OX1R; HCRTR1). [Related pubchem assays (depositor defined):AID434989, AID435008, AID463079, AID485270, AID492963, AID492964, AID492965, AID493232, AID504717, AID504718]; assay type: functional
Orexin receptor type 2 [7] = biological target: T5, Orexin receptor type 2 (Homo sapiens, UniProt O43614); assay: Counterscreen assay for antagonists of the orexin 1 receptor (OX1R; HCRTR1): Homogeneous Time Resolved Fluorescence (HTRF)-based cell-based dose response assay for antagonists of the orexin 2 receptor (OX2R; HCRTR2), run by assay provider.; assay type: functional
[8] = biological target: T4, Polyadenylate-binding protein 1; assay: PABP1 MLLE–PAM2 binding inhibitor potency, dose response, biochemical, fluorescence polarization, FITC-PAM2 peptide (AID 602259); assay type: functional; conditions: read-out: IC50_Mean
[9] = as §1, with “Fluorescence-based” for “Homogeneous time resolved fluorescence (HTRF)-based”, “cell-based high throughput” for “cell-based”, “CHO” for “CHO-K1”; assay type: functional
Orexin receptor type 2 [10] = biological target: T5, Orexin receptor type 2; assay: Counterscreen assay for antagonists of the orexin 1 receptor (OX1R; HCRTR1): Fluorescence-based cell-based dose response assay for antagonists of the orexin 2 receptor (OX2R; HCRTR2), run by assay provider.; assay type: functional
[11] = biological target: Serine/threonine-protein kinase Chk1 (Homo sapiens, UniProt O14757); assay type: functional;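 also: measured as one member of a kinome-wide kinase profiling panel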
[12] = biological target: 5'-AMP-activated protein kinase catalytic subunit alpha-1 (Homo sapiens, UniProt Q13131); assay type: functional
[13] = biological target: Receptor-type tyrosine-protein kinase FLT3 (Homo sapiens, UniProt P36888); assay type: functional;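 also: FLT3 was tested as one member of a kinome-wide kinase panel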
[14] = biological target: BDNF/NT-3 growth factors receptor (Homo sapiens, UniProt Q16620); assay type: functional;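 also: NTRK2 measured as one member of a broad kinome-wide kinase profiling panel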
[15] = biological target: Dual specificity protein kinase CLK4 (Homo sapiens, UniProt Q9HAZ1); assay type: functional
[16] = biological target: cAMP-dependent protein kinase catalytic subunit alpha (Homo sapiens, UniProt P17612); assay type: functional
[17] = biological target: High affinity nerve growth factor receptor (Homo sapiens, UniProt P04629); assay type: functional;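 also: NTRK1 tested as one member of a kinome-wide profiling panel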
[18] = biological target: Ribosomal protein S6 kinase alpha-3 (Homo sapiens, UniProt P51812); assay type: functional;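 also: measured within a kinome-wide profiling panel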
[19] = biological target: T2, Glycogen synthase kinase-3 beta; assay type: functional
[20] = biological target: Mitogen-activated protein kinase kinase kinase kinase 2 (Homo sapiens, UniProt Q12851); assay type: functional;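 also: measured as one member of a kinome-wide kinase panel, with MAP4K2 as the panel entry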
[21] = biological target: Cyclin-dependent kinase 9 (Homo sapiens, UniProt P50750); assay type: functional;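 also: value from the CDK9 entry of a kinome-spanning kinase panel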
[22] = biological target: Tyrosine-protein kinase JAK2 (Homo sapiens, UniProt O60674); assay type: functional;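 also: JAK2 tested as one member of a kinase panel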
[23] = biological target: Proto-oncogene tyrosine-protein kinase receptor Ret (Homo sapiens, UniProt P07949); assay type: functional;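 also: measured within a kinome-wide profiling panel, RET as the panel member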
[24] = biological target: Dual specificity tyrosine-phosphorylation-regulated kinase 1A (Homo sapiens, UniProt Q13627); assay type: functional;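 also: measured against DYRK1A as one member of a broad kinome profiling panel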
[25] = biological target: Tyrosine-protein kinase ABL1 (Homo sapiens, UniProt P00519); assay type: functional
[26] = biological target: Macrophage colony-stimulating factor 1 receptor (Homo sapiens, UniProt P07333); assay type: functional;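 also: value comes from the Navigating the Kinome screening panel, CSF1R member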
[27] = biological target: Death-associated protein kinase 3 (Homo sapiens, UniProt O43293); assay type: functional;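 also: measured as one member of a kinome-wide profiling panel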
[28] = biological target: Vascular endothelial growth factor receptor 2 (Homo sapiens, UniProt P35968); assay type: functional
[29] = biological target: Cyclin-dependent kinase 19 (Homo sapiens, UniProt Q9BWU1); assay: Navigating the Kinome. Panel member name: CDC2L6; assay type: functional
LIM domain kinase 1 = LIM domain kinase 1 (Homo sapiens, UniProt P53667); assay: Navigating the Kinome. Panel member name: LIMK1; assay type: functional
[30] = biological target: Calcium/calmodulin-dependent protein kinase type II subunit alpha (Homo sapiens, UniProt Q9UQM7); assay: Navigating the Kinome. Panel member name: CAMK2A; assay type: functional
[31] = biological target: Protein kinase C theta type (Homo sapiens, UniProt Q04759); assay: Navigating the Kinome. Panel member name: PRKCQ; assay type: functional
Aurora kinase A = biological target: T6, Aurora kinase A (Homo sapiens, UniProt O14965); assay type: functional;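 also: value from the Navigating the Kinome kinase panel profiling, panel entry STK6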
T6 sequence (O14965 whole entry): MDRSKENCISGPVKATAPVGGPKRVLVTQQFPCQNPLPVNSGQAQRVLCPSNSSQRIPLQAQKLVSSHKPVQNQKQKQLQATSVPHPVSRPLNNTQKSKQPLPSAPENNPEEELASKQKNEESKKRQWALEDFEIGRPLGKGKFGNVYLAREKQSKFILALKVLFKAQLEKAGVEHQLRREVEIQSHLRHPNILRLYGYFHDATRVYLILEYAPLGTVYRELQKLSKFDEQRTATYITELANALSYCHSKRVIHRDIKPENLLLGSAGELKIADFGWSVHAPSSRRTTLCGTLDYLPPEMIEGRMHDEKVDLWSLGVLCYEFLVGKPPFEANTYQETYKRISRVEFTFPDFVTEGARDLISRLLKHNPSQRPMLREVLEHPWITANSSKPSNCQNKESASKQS

[32] = biological target: T1, Glycogen synthase kinase-3 alpha; assay type: functional
[33] = biological target: Platelet-derived growth factor receptor beta (Homo sapiens, UniProt P09619); assay type: functional;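 also: value comes from a kinome panel, with PDGFRB tested as one panel member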
[34] = biological target: Hepatocyte growth factor receptor (Homo sapiens, UniProt P08581); assay type: functional;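 also: kinase panel profiling across the kinome, with MET as the panel member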
[35] = biological target: Tyrosine-protein kinase receptor TYRO3 (Homo sapiens, UniProt Q06418); assay type: functional;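 also: TYRO3 value obtained as one member of a kinome-wide profiling panel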
[36] = biological target: Dual specificity tyrosine-phosphorylation-regulated kinase 1B (Homo sapiens, UniProt Q9Y463); assay: Navigating the Kinome. Panel member name: DYRK1B; assay type: functional
[37] = biological target: Mitogen-activated protein kinase 8 (Homo sapiens, UniProt P45983); assay type: functional;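 also: value comes from one member of a kinome-wide kinase profiling panel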
[38] = biological target: Dual specificity mitogen-activated protein kinase kinase 2 (Homo sapiens, UniProt P36507); assay: Navigating the Kinome. Panel member name: MAP2K2; assay type: functional
[39] = biological target: Serine/threonine-protein kinase pim-1 (Homo sapiens, UniProt P11309); assay type: functional
[40] = biological target: T7, Sphingosine 1-phosphate receptor 2 (Homo sapiens, UniProt O95136); assay: Late-stage fluorescence-based dose-response cell-based counterscreen assay to identify agonists of the Sphingosine 1-Phosphate Receptor 3 (S1P3): Sphingosine 1-Phosphate Receptor 2 (S1P2) agonist assay.; assay type: functional
[41] = biological target: Sphingosine 1-phosphate receptor 4 (Homo sapiens, UniProt O95977); assay: Late-stage fluorescence-based dose-response cell-based counterscreen assay to identify agonists of the Sphingosine 1-Phosphate Receptor 3 (S1P3): Sphingosine 1-Phosphate Receptor 4 (S1P4) agonist assay.; assay type: functional
[42] = biological target: Sphingosine 1-phosphate receptor 3 (Homo sapiens, UniProt Q99500); assay: Late-stage fluorescence-based dose-response cell-based counterscreen assay to identify agonists of the Sphingosine 1-Phosphate Receptor 4 (S1P4): Sphingosine 1-Phosphate Receptor 3 (S1P3) agonist assay Set 2.; assay type: functional
[43] = biological target: Sphingosine 1-phosphate receptor 1 (Homo sapiens, UniProt P21453); assay: Late-stage fluorescence-based dose-response cell-based counterscreen assay to identify agonists of the Sphingosine 1-Phosphate Receptor 4 (S1P4): Sphingosine 1-Phosphate Receptor 1 (S1P1) agonist assay Set 2.; assay type: functional
[44] = biological target: Sphingosine 1-phosphate receptor 5 (Homo sapiens, UniProt Q9H228); assay: S1P5 receptor agonists, human, late-stage follow-up, counter-screen for S1P4 agonist project, cell-based, fluorescence, set 2 (AID 504867); assay type: functional
[45] = biological target: T7, Sphingosine 1-phosphate receptor 2; assay: S1P2 receptor agonists, human, late-stage follow-up, counter-screen for S1P4 agonist project, cell-based, fluorescence, set 2 (AID 504873); assay type: functional
[46] = biological target: DNA dC->dU-editing enzyme APOBEC-3G (Homo sapiens, UniProt Q9HC16); assay: APOBEC3G deaminase inhibitors, SAR follow-up, biochemical, fluorescence, single-stranded DNA substrate (AID 602136); assay type: functional; conditions: read-out: IC50_Mean
[47] = biological target: DNA dC->dU-editing enzyme APOBEC-3A (Homo sapiens, UniProt P31941); assay: SAR analysis of small molecule inhibitors of APOBEC3A DNA Deaminase via a fluorescence-based single-stranded DNA deaminase assay.; assay type: functional; conditions: read-out: IC50_Mean
Prothrombin = Prothrombin (Bos taurus, UniProt P00735); assay: thrombin inhibition, dose response, biochemical, fluorescence polarization, uHTS hits (AID 602369); assay type: functional
[48] = biological target: 72 kDa type IV collagenase (Homo sapiens, UniProt P08253); assay: Dose Response validation of uHTS RPN11 inhibitor hits using a MMP-2 Fluorescence assay.; assay type: functional
[49] = biological target: 26S proteasome non-ATPase regulatory subunit 14 (Homo sapiens, UniProt O00487); assay: inhibition of proteasome subunit RPN11 – biochemical, fluorescence polarization, uHTS hits, confirmation (AID 602368); assay type: functional
Sequence of 26S proteasome non-ATPase regulatory subunit 14 (O00487 whole entry): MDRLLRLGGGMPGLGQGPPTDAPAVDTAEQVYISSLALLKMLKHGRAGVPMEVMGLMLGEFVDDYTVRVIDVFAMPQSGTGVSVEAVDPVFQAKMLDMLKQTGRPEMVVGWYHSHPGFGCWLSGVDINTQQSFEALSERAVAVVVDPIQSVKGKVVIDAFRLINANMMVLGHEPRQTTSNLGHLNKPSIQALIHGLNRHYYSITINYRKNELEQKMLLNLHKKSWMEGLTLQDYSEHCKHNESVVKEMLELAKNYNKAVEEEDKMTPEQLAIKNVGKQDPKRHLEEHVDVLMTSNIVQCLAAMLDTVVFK

T2 sequence (P49841 whole entry): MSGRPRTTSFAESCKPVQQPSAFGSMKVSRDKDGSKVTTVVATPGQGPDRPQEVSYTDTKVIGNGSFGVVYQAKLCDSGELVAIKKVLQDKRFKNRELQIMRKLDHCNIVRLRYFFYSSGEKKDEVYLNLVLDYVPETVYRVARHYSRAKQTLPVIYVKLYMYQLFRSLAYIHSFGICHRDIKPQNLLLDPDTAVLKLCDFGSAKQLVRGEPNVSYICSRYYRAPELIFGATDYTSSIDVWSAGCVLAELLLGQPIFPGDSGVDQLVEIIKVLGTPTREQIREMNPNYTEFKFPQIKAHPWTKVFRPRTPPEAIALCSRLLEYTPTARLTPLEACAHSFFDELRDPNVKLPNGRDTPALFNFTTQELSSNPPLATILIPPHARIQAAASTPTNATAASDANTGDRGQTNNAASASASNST
T1 sequence (P49840 whole entry): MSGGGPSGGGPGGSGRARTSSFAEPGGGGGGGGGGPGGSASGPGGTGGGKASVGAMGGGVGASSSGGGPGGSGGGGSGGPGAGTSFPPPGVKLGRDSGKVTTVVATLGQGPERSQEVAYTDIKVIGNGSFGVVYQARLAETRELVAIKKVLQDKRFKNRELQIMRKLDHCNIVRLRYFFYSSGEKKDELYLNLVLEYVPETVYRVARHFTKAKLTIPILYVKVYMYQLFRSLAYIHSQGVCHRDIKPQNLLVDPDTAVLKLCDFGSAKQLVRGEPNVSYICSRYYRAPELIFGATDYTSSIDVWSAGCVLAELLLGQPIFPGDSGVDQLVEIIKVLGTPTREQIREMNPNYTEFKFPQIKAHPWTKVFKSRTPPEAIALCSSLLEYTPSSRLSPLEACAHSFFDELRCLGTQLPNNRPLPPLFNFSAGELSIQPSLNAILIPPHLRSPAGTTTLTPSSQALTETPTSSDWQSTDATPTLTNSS
T5 sequence (O43614 whole entry): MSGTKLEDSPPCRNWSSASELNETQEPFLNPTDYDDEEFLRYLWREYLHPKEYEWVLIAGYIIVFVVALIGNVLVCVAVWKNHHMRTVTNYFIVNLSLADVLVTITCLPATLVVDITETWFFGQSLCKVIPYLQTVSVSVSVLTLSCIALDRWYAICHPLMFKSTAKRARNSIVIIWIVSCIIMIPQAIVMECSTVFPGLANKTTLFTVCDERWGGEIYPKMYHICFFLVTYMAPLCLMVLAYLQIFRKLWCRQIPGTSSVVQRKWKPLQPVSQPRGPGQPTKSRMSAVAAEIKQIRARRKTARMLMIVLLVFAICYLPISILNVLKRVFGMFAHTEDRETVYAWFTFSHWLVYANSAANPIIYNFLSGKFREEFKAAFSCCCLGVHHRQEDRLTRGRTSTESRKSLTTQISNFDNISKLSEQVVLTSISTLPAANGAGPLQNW
T4 sequence (P11940 whole entry): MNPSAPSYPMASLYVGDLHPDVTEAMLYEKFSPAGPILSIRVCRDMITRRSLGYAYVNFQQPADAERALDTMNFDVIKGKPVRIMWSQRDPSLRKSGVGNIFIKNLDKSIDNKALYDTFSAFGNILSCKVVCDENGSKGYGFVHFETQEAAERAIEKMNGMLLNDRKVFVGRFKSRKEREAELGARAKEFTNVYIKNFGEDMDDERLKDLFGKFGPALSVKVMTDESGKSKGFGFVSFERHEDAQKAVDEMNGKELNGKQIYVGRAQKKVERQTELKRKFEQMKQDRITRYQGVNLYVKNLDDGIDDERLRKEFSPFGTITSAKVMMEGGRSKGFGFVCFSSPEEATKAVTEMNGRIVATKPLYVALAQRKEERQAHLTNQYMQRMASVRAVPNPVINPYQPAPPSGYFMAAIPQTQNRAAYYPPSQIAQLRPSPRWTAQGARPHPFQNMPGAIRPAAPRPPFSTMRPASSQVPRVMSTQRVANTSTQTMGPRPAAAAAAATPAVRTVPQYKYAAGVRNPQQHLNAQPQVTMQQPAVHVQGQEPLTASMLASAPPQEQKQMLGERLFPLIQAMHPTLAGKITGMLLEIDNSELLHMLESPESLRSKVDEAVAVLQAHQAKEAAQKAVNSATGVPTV
T7 sequence (O95136 whole entry): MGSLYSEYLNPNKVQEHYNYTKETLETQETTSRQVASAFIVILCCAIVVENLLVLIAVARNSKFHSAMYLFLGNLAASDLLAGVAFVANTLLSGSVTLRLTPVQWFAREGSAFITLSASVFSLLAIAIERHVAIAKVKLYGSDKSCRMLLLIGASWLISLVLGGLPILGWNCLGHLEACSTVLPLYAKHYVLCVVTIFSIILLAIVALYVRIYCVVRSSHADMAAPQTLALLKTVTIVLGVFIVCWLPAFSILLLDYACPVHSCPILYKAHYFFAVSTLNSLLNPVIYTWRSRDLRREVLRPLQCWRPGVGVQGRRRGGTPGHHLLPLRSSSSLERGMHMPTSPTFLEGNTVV
Sequence of Serine/threonine-protein kinase Chk1 (O14757 whole entry): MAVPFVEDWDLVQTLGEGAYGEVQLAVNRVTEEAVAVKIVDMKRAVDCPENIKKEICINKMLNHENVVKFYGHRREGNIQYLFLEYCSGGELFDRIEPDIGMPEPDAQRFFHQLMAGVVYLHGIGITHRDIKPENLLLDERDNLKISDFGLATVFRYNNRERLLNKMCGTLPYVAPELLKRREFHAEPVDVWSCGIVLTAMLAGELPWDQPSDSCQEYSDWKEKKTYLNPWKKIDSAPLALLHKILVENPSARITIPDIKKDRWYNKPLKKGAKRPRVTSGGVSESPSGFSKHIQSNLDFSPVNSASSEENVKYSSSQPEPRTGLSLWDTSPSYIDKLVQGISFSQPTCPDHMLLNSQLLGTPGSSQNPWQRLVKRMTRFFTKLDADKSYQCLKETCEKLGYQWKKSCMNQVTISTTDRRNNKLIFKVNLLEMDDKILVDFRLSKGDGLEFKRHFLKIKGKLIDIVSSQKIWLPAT
Sequence of Mitogen-activated protein kinase 8 (P45983 whole entry): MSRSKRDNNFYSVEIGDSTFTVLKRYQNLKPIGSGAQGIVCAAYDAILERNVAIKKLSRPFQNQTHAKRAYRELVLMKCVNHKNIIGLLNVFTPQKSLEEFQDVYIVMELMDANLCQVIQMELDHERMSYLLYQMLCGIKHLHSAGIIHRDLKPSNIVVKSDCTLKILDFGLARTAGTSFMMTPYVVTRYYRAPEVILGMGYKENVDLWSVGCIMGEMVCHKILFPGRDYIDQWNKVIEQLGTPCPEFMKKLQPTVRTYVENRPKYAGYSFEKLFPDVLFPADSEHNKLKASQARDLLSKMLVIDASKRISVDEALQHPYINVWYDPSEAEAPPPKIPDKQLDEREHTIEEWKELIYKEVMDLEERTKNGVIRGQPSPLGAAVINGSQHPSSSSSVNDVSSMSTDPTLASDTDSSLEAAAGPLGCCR
Sequence of Dual specificity tyrosine-phosphorylation-regulated kinase 1B (Q9Y463 whole entry): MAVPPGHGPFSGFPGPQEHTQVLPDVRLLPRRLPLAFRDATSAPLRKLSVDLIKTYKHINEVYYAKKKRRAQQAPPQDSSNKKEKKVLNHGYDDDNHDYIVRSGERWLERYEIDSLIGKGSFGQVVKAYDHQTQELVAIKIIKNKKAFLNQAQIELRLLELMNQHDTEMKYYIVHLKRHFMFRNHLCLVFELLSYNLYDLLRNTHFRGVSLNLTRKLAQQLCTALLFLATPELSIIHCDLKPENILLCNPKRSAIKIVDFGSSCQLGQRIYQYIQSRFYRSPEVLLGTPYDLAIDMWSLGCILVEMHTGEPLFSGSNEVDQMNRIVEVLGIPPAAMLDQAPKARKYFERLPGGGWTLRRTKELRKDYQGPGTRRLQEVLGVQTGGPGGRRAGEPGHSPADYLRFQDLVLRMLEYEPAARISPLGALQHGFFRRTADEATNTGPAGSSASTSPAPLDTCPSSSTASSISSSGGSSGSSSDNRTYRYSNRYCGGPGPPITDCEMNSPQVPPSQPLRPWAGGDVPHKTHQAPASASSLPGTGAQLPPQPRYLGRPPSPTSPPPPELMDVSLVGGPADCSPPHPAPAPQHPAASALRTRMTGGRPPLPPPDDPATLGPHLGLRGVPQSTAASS
Sequence of Sphingosine 1-phosphate receptor 5 (Q9H228 whole entry): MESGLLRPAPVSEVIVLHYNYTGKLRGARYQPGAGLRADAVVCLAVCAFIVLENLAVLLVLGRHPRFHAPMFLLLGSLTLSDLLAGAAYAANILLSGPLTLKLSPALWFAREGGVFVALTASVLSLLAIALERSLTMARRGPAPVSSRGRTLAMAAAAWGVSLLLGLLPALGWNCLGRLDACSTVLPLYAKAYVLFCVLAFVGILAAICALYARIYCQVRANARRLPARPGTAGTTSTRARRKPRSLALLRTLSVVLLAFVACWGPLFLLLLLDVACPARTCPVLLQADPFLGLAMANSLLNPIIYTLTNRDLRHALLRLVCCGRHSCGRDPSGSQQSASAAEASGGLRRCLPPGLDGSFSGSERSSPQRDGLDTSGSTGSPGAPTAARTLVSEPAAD
Sequence of DNA dC->dU-editing enzyme APOBEC-3A (P31941 whole entry): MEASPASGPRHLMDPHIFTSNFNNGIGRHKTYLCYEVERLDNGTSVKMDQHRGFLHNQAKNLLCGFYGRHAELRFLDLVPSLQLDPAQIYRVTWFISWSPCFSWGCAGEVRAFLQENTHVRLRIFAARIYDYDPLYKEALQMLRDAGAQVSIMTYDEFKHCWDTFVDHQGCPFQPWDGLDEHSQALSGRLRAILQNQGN

O=C(CSc1ccc2nnc(-c3cccs3)n2n1)N1CCCC1
active: AC50 [1] 2.08 µM | AC50 [2] 0.742 µM | AC50 [3] 78.4 µM

CCN1C(=O)/C(=C2/SC(C)=C(C)N2CC)SC1=S
active: IC50 [4] 3.15 µM
inactive: IC50 (CHO-K1) > 66.2 µM | IC50 [5] > 66 µM | IC50 [6] 14.7 µM | IC50 (Orexin receptor type 2 [7]) > 50 µM | IC50 [8] > 66 µM | IC50 [9] > 49.8 µM | IC50 (Orexin receptor type 2 [10]) > 88.8 µM

COc1ccc(-c2ccc(N)cc2)c2cnoc12
inactive: Ki [16] > 50.1 µM | Ki [21] > 63.1 µM | Ki [24] > 63.1 µM | Ki [26] > 100 µM | Ki [28] > 79.4 µM | Ki [29] > 100 µM | Ki [31] > 79.4 µM | Ki (Aurora kinase A) > 50.1 µM | Ki [33] > 79.4 µM
active: Ki [11] 3.98 µM | Ki [12] 79.4 µM | Ki [13] 79.4 µM | Ki [14] 100 µM | Ki [15] 7.94 µM | Ki [17] 15.8 µM | Ki [18] 63.1 µM | Ki [19] 31.6 µM | Ki [20] 63.1 µM | Ki [22] 79.4 µM | Ki [23] 39.8 µM | Ki [25] 63.1 µM | Ki [27] 79.4 µM | Ki (LIM domain kinase 1) 3.98 µM | Ki [30] 79.4 µM | Ki [32] 100 µM | Ki [34] 79.4 µM | Ki [35] 100 µM | Ki [36] 50.1 µM | Ki [37] 50.1 µM | Ki [38] 100 µM | Ki [39] 12.6 µM

O=C(c1cc(C2CC2)on1)N(C1CCCCCC1)C1CCCC1
inactive: EC50 [40] > 50 µM | EC50 [41] > 50 µM

C/N=C1/S/C(=C/c2cc(C)n(-c3ccc(F)cc3F)c2C)C(=O)N1C
active: EC50 [43] 4.47 µM
inactive: EC50 [42] > 25 µM | EC50 [44] > 25 µM | EC50 [45] > 25 µM

CN(CC1CCCN(CCc2ccc(Cl)cc2)C1)C(=O)c1cc2ncccn2n1 (stereo not drawn)
inactive: IC50 [46] > 99 µM | IC50 [47] > 99 µM

O=C1NC(=O)N(c2cccc3ccccc23)C(=O)/C1=C\NN1CCCCC1c1cccnc1 (stereo not drawn)
inactive: IC50 [48] > 100 µM
active: IC50 (Prothrombin) 59.6 µM | IC50 [49] 27.4 µM
